Patent publication US20050234073A1, “Methods of inhibiting inflammation” (priority 2003, published 2005)

Experiments:
MTP = molecular target: T1, MTP (Mus musculus, UniProt O08601); test: Triglyceride transfer assay in splenocyte lysates; format: biochemical; conditions: splenocyte lysate with inhibitor added
T1 construct: Splenocyte lysates contained measurable triglyceride transfer activity; endogenous in cells; host or cells: primary mouse splenocytes (crude lysate)
T1 sequence (O08601 22-894): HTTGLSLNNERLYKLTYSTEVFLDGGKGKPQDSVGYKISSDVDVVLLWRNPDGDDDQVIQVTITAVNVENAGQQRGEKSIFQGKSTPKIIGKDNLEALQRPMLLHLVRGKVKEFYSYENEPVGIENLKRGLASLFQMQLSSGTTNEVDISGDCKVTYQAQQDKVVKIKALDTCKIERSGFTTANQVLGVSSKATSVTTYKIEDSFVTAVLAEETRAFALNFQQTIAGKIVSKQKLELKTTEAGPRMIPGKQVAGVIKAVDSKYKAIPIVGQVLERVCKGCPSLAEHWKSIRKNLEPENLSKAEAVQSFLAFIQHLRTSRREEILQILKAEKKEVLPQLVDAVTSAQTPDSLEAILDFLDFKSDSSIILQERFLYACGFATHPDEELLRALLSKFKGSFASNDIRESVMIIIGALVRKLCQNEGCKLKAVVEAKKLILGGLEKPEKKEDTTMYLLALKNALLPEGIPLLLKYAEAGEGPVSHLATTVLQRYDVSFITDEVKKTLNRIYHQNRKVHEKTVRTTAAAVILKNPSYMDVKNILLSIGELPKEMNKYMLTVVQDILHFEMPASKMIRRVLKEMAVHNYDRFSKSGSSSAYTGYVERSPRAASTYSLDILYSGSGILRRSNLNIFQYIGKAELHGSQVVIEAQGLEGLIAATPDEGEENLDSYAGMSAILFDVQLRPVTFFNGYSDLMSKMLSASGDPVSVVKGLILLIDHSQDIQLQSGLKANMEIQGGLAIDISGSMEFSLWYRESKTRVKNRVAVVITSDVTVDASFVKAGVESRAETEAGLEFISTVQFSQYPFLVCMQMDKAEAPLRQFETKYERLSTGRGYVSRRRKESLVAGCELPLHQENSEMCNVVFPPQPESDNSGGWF
T1 sequence (P09103 20-509 partner): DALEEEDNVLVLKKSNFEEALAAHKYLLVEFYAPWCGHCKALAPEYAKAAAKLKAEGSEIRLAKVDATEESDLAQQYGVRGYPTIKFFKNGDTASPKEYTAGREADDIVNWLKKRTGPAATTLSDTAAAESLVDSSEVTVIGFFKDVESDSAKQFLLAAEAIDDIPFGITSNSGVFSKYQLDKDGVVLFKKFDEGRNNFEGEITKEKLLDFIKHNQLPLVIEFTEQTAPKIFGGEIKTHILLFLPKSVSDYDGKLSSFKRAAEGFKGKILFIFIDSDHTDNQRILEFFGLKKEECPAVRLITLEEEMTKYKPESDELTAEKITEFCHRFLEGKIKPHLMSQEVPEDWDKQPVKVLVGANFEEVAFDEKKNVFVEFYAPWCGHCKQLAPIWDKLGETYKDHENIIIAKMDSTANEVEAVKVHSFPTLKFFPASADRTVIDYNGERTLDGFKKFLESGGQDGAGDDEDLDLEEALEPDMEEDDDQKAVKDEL
Method: FIG. 15C is a line graph showing triglyceride transfer activity in 100 ug splenocyte lysate (Δ), 50 μg splenocyte lysate (◯), 100 μg splenocyte lysate with BMS197636 (▴), and 50 μg splenocyte lysate with BMS197636 (●). Assays were in triplicate with standard deviations less than 10% of percent transfer at 3 hours.
(§1) The triglyceride transfer activity of MTP was measured using donor phospholipids vesicles (Chylos Inc.) as described. PE transfer was done by overnight coating of a microtiter plate with 2 ug per well recombinant murine CD1d purified by baculovirus expression system. Wells were washed with PBS, incubated with PBS containing 0.5% isopropanol for 2 hours at 37° C., and washed again with PBS. […] Fluorescence was read with a fluorescence plate reader (7620 Microplate Fluorimeter; Cambridge Technology, Watertown, Mass.) using 460 nm excitation and 530 nm emission wavelengths.
In this assay, MTP function is assessed by studying the transfer of fluorescently labeled triglycerides embedded in donor phospholipid vesicles to acceptor vesicles. During the transfer, the amount of triglyceride associated with MTP can be measured as an increase in fluorescence over time. […]

C1Rd cells = test: C1Rd cell CD1d-mediated activation of human peripheral blood derived iNKT cell line with PMA (IFN-gamma); format: cell-based; conditions: limiting concentration of PMA
Method: FIG. 20E is a line chart showing IFN-gamma production in C1Rd cells cultured with BMS197636 or vehicle and incubated with NKT cell lines derived from human peripheral blood in the presence of 1 ng/mL PMA.
APCs were incubated with 100 ng/mL α-galcer (kindly provided by Dr. H. Ploegh) for 3 hours, washed three times in PBS and aliquoted into a 96 well plate at 10^6 cells/mL. DN32 cells were added at 1:1 E:T ratio unless otherwise indicated. CD4^+ cells were isolated from spleens of OT-II transgenic mice using positive selection on CD4 magnetic beads (Miltenyi Biotec) and incubated with APCs and 100 μg/mL ovalbumin. The 24.8 NKT cell line was incubated with APCs in the absence of added antigen at E:T=2:1 unless otherwise indicated. Mouse IL-2 production was assessed by ELISA (OptEIA, BD PharMingen) of 24 or 40 hour culture supernatants. APCs were treated with BMS212122 (10 uM dissolved in DMSO; kindly provided by Bristol Myers Squibb, New Jersey) as indicated and washed prior to addition of T or NKT cells. […]
C1Rd is a human B cell line transfected with human CD1d. […] Incubation of C1Rd cells with BMS212122, but not the vehicle, inhibited the presentation of α-galcer as determined by a reduction in IL-2 secretion (FIG. 20D).

recombinant murine CD1d = molecular target: T2, recombinant murine CD1d (Mus musculus, UniProt P11609); test: PE transfer assay from MTP to recombinant CD1d; format: biochemical; conditions: 0.5 μg purified MTP, PE:NBD vesicles, 2 hours 37 degrees
T2 construct: made in house; host or cells: baculovirus expression system (CD1d); rat liver (MTP)
T2 sequence (P11609 22-305 limits assumed): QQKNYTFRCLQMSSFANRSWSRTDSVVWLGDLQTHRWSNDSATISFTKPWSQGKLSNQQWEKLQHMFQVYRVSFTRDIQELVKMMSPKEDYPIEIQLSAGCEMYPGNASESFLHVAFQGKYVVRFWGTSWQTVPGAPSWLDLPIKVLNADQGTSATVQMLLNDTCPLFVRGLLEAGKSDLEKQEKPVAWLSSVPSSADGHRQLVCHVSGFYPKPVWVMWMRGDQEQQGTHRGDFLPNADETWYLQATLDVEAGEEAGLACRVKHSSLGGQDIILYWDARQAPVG
T2 sequence (P01887 21-119 partner): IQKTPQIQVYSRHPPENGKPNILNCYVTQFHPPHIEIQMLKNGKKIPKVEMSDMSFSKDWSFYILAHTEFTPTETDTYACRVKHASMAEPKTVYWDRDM
Method: FIG. 16A is a bar chart showing purified MTP transfers a lipid to recombinant CD1d in vitro. Two micrograms of BSA or recombinant CD1d were coated onto microtiter wells and incubated with either PE:NBD vesicles alone or PE:NBD vesicles plus 0.5 μg purified MTP. Results are representative of five independent experiments. *, p<0.005
as §1, with “system.” for “system. Wells were washed with PBS, incubated with PBS containing 0.5% isopropanol for 2 hours at 37° C., and washed again with PBS.”
Recombinant β2m associated CD1d was coated onto a 96 well plate and incubated with liposomes containing a 6:1 ratio of unlabeled PE:NBD-labeled PE. […] Lipids bound to CD1d were eluted with isopropanol, transferred to a black microtiter plate, and the level of fluorescence determined. […] Assuming equal efficiency of MTP-mediated transfer of labeled versus unlabeled PE to the CD1d pocket and that all CD1d molecules bound to the plastic in an orientation with the groove solvent accessible, we calculated that the maximum limit of NBD-labeled PE that could be transferred to CD1d was 4.7 picomoles in this assay. […]

Molecule | triglyceride transfer activity of splenocyte lysates (MTP) | CD1d-mediated activation of human peripheral blood derived iNKT cell line (C1Rd cells) | increase in fluorescence above background (PE transferred to CD1d) (recombinant murine CD1d)
9-[4-[[[4′-(trifluoromethyl)[1,1′-biphenyl]-2-yl]carbonyl]amino]butyl-piperidin-4-yl]-N-(2,2,2-trifluoroethyl)-9H-fluorene-9-carboxamide [BMS197636] | abrogated | dose-dependent inhibition | –
MTP: microsomal triglyceride transfer protein purified from rat liver (>95% pure by SDS-PAGE) (protein) chain 1: HTTGLSLNNERLYKLTYSTEVFLDGGKGKPQDSVGYKISSDVDVVLLWRNPDGDDDQVIQVTITAVNVENAGQQRGEKSIFQGKSTPKIIGKDNLEALQRPMLLHLVRGKVKEFYSYENEPVGIENLKRGLASLFQMQLSSGTTNEVDISGDCKVTYQAQQDKVVKIKALDTCKIERSGFTTANQVLGVSSKATSVTTYKIEDSFVTAVLAEETRAFALNFQQTIAGKIVSKQKLELKTTEAGPRMIPGKQVAGVIKAVDSKYKAIPIVGQVLERVCKGCPSLAEHWKSIRKNLEPENLSKAEAVQSFLAFIQHLRTSRREEILQILKAEKKEVLPQLVDAVTSAQTPDSLEAILDFLDFKSDSSIILQERFLYACGFATHPDEELLRALLSKFKGSFASNDIRESVMIIIGALVRKLCQNEGCKLKAVVEAKKLILGGLEKPEKKEDTTMYLLALKNALLPEGIPLLLKYAEAGEGPVSHLATTVLQRYDVSFITDEVKKTLNRIYHQNRKVHEKTVRTTAAAVILKNPSYMDVKNILLSIGELPKEMNKYMLTVVQDILHFEMPASKMIRRVLKEMAVHNYDRFSKSGSSSAYTGYVERSPRAASTYSLDILYSGSGILRRSNLNIFQYIKGTELHGSQVVIEAQGLEGLIAATPDEGEENLDSYAGMSAILFDVQLRPVTFFNGYSDLMSKMLSASGDPVSVVKGLILLIDHSQDIQLQSGLKANMEIQGGLAIDISGSMEFSLWYRESKTRVKNRVAVVITSDVTVDASFVKAGLESRAETEAGLEFISTVQFSQYPFLVCMQMDKAEAPLRQFETKYERLSTGRGYVSRRRKESLVAGCELPLHQQNSEMCNVVFPPQPESDNSGGWF chain 2: DALEEEDNVLVLKKSNFEEALAAHKYLLVEFYAPWCGHCKALAPEYAKAAAKLKAEGSEIRLAKVDATEESDLAQQYGVRGYPTIKFFKNGDTASPKEYTAGREADDIVNWLKKRTGPAATTLSDTAAAESLVDSSEVTVIGFFKDVESDSAKQFLLAAEAIDDIPFGITSNSGVFSKYQLDKDGVVLFKKFDEGRNNFEGEITKEKLLDFIKHNQLPLVIEFTEQTAPKIFGGEIKTHILLFLPKSVSDYDGKLSSFKRAAEGFKGKILFIFIDSDHTDNQRILEFFGLKKEECPAVRLITLEEEMTKYKPESDELTAEKITEFCHRFLEGKIKPHLMSQEVPEDWDKQPVKVLVGANFEEVAFDEKKNVFVEFYAPWCGHCKQLAPIWDKLGETYKDHENIIIAKMDSTANEVEAVKVHSFPTLKFFPASADRTVIDYNGERTLDGFKKFLESGGQDGAGDDEDLDLEEALEPDMEEDDDQKAVKDEL | – | – | 5 fold
